The values that follow come from ChEMBL document CHEMBL6153170 (J Med Chem, 2025).

A word on the MRT inf: it is the average time that molecules of a dose stay in the body. One may read the bioavailability as dose-corrected exposure relative to a reference, in per cent. Lower therefore signals little systemic uptake. Broadly, the half-life is how long it takes for the measured level to halve. Low values mean fast loss, high ones slow loss. The term inhibition in vivo denotes the relative decrease from the control value, in per cent. The term Tmax denotes the time from dosing to the highest level.

A short description of data set [1]: Toxicity in C57 mouse assessed as change in TBIL level at 20 mg/kg/day, IG administered for 14 days by heat map analysis. It counts as organism-based. The settings on record: in vivo, po, 336 h, time 14 day.
Data set [2] is described as follows: Toxicity in C57 mouse assessed as myelosuppression by measuring PDW level at 20 mg/kg/day, IG administered for 14 days by heat map analysis. The settings on record: in vivo, po, 336 h, time 14 day. It counts as organism-based.
Data set [3] is described as follows: Toxicity in C57 mouse assessed as myelosuppression by measuring MCHC level at 20 mg/kg/day, IG administered for 14 days by heat map analysis. The settings on record: in vivo, po, 336 h, time 14 day. Type of data set: organism-based.
The nature of data set [4]: Toxicity in C57 mouse assessed as myelosuppression by measuring MCH level at 20 mg/kg/day, IG administered for 14 days by heat map analysis. Type of data set: organism-based. The settings on record: in vivo, po, 336 h, time 14 day.
The nature of data set [5]: Toxicity in C57 mouse assessed as myelosuppression by measuring hematocrit level at 20 mg/kg/day, IG administered for 14 days by heat map analysis. Type of data set: organism-based. The note with it: in vivo, po, 336 h, time 14 day.
Data set [6] can be described thus: Toxicity in C57 mouse assessed as myelosuppression by measuring lymphocytes level at 20 mg/kg/day, IG administered for 14 days by heat map analysis. The settings on record: in vivo, po, 336 h, time 14 day. Type of data set: organism-based.
Data set [7] concerns Jurkat. Kind of data set: Cytotoxicity against human Jurkat T cells assessed as reduction in cell viability at 0.01 to 1 uM incubated for 48 hrs. It counts as functional, cell-based. The note with it: dose 0.01-1 µM.
The subject of data set [8] is B16-F10. Briefly: Antitumor immunity activity against mouse B16-F10 cells implanted in C57BL/6 mouse model assessed as CD3+ CD4+ T cell percentage in tumor at 20 mg/kg/day, ip administered for 14 days by flow cytometric analysis (reference value: 0.095 %). Type of data set: functional. The note with it: time 14 day. (Flow cytometry measures light scatter and fluorescence of single cells or particles in a stream.)

A short description of data set [9]: MRT (0 to infinity) in male Sprague-Dawley rat at 2 mg/kg, iv measured after 48 hrs by triple quadrupole mass spectrometric analysis. It counts as ADME, organism-based. The note with it: in vivo.
Data set [10] in a line: Oral bioavailability in male Sprague-Dawley rat at 10 mg/kg measured after 48 hrs by triple quadrupole mass spectrometric analysis. It counts as ADME, organism-based. The note with it: in vivo.
Data set [11] has as its system B16-F10. Kind of data set: Downregulation of PD-L1 expression level in mouse B16-F10 cells at 0.1 to 2 uM incubated for 24 hrs by Western blot analysis. Type of data set: functional, cell-based. The note with it: dose 0.1-2 µM. On the technique in general: Immunoblotting shows a protein as a band on a membrane.
Data set [12] has as its system B16-F10. Briefly: Antitumor immunity activity against mouse B16-F10 cells implanted in C57BL/6 mouse model assessed as CD3+ CD4+ T cell percentage in tumor at 20 mg/kg/day, ip co-administered with ACY-1215 for 14 days by flow cytometric analysis (reference value: 0.095 %). It counts as functional. The note with it: time 14 day.
For data set [13], the system named is Jurkat. Briefly: Effect on acetylated histone H3 protein level in human Jurkat T cells at 0.1 to 2 uM incubated for 12 hrs by Western blot analysis. Type of data set: functional, cell-based. The settings on record: dose 0.1-2 µM.
Data set [14] in a line: Half-life in male Sprague-Dawley rat at 10 mg/kg, po measured after 48 hrs by triple quadrupole mass spectrometric analysis. Type of data set: ADME, organism-based. The settings on record: in vivo.
Data set [15] concerns the target T1, Protein deacetylase HDAC6 (Mus musculus) (UniProt Q9Z2V5).
T1 sequence (whole entry): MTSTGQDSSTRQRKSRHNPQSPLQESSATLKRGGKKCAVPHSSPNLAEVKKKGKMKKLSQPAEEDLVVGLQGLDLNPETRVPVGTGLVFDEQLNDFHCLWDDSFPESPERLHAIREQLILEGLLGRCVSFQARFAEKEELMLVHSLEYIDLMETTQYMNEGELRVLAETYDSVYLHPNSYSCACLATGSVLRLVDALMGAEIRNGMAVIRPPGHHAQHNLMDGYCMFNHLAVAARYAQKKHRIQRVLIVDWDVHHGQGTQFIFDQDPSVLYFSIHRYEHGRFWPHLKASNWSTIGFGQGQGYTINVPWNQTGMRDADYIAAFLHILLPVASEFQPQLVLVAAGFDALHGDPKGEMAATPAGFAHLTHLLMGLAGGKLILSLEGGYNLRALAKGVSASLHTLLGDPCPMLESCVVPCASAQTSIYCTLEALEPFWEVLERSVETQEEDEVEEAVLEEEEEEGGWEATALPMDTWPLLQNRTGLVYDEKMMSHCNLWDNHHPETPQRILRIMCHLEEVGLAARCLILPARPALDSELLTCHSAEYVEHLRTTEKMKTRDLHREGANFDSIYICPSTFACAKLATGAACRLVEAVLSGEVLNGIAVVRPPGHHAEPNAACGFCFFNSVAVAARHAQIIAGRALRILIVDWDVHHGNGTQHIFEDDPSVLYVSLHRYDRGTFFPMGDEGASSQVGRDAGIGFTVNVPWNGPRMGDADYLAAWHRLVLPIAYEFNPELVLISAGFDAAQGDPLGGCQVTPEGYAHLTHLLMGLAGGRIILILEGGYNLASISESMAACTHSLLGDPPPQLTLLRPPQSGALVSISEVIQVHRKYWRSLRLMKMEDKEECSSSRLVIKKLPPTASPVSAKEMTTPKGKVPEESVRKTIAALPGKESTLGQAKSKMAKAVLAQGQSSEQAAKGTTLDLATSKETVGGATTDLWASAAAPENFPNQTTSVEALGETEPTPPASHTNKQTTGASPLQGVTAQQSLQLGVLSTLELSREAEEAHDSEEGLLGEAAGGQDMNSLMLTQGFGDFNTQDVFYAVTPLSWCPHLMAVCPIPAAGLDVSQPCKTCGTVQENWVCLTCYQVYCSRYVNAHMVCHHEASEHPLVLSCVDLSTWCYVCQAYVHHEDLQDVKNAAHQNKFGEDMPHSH
Kind of data set: Inhibition of HDAC6 in mouse B16-F10 cells assessed as increase in acetylated alpha-tubulin level incubated for 12 hrs by Western blot analysis. Type of data set: cell-based. The note with it: dose 0.1-2 µM.

A further data set deals with HepG2. Briefly: Cytotoxicity against human HepG2 cells assessed as reduction in cell viability at 0.01 to 1 uM incubated for 48 hrs by MTT assay. Type of data set: functional, cell-based. The note with it: dose 0.01-1 µM. For orientation: Formazan colour is commonly taken as a measure of viable cells.
Data set [16] can be described thus: In vivo inhibition of PD-L1 in C57BL/6 mouse model implanted with mouse B16-F10 cells assessed as reduction in PD-L1 protein expression in tumor at 20 mg/kg/day, ip administered for 14 days by Western blot analysis relative to control. The settings on record: C57BL/6, B16-F10, 336 h, time 14 day. Type of data set: functional.
Data set [17] addresses Histone deacetylase 1 (Mus musculus) (UniProt O09106). Kind of data set: Inhibition of HDAC1 in mouse B16-F10 cells assessed as increase in acetylated H3 level incubated for 12 hrs by Western blot analysis. It counts as cell-based.
A short description of data set [18]: Toxicity in C57BL/6 mouse model implanted with mouse B16-F10 cells assessed as morphological changes in kidney at 20 mg/kg/day, ip administered for 14 days by H and E staining based analysis. Type of data set: organism-based. The note with it: in vivo, 336 h, time 14 day.
The nature of data set [19]: Apparent volume of distribution during terminal phase in male Sprague-Dawley rat at 10 mg/kg, po measured after 48 hrs by triple quadrupole mass spectrometric analysis. Type of data set: ADME, organism-based. The note with it: in vivo, read-out: Vz/F.
A short description of data set [20]: Tmax in male Sprague-Dawley rat at 10 mg/kg, po measured after 48 hrs by triple quadrupole mass spectrometric analysis. The settings on record: in vivo. It counts as ADME, organism-based.

Active and inactive are the calls of the source. The rule behind the calls is not given here.

Chain of Histone deacetylase 1 (Mus musculus) (O09106 whole entry): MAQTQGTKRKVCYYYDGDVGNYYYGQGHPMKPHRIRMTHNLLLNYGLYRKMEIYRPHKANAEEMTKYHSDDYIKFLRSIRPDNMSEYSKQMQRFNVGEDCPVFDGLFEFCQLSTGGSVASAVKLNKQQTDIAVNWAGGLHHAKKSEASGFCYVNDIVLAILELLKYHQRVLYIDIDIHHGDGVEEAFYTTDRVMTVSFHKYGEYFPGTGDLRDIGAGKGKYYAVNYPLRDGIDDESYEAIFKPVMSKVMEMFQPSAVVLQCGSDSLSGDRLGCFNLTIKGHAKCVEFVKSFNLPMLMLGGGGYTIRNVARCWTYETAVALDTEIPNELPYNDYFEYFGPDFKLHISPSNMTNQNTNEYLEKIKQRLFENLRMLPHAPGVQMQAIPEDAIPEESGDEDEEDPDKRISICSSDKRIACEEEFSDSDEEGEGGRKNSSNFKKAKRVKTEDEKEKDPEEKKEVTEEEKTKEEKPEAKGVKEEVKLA

`COc1nc(-c2cccc(-c3ccccc3)c2C)ccc1CNCCCCCCC(=O)NO`: the Activity entry in [1], in data set [2], in [3], in [4], in data set [5] and in data set [6] was “Non-toxic” each time. For the same compound, the Activity in the data set with B16-F10 [8] is listed as 11.5%; in the data set with B16-F10 [12], 7.72%; with Jurkat [13], “Active; Negligible Effect Observed”; in data set [18] it was “Non-toxic”. The result in the data set on Jurkat [7] and in the data set on HepG2 was inactive. The compound further showed a mean residence time (MRT inf) in data set [9] of 7.12 h. For the same compound, the bioavailability in [10] was found to be 15.3%. In the data set with B16-F10 [11], the outcome was Active. The same compound had a half-life in [14] of 13.2 h. Moreover, in [15], the inhibition result is “Dose-dependent-effect”. For the same compound, the inhibition in vivo at 20 mg/kg/day in data set [16] was approximately 68%. In data set [17], the inhibition result was “inactive”. The Vd/F in data set [19] was found to be 31.9 L/kg. In addition, in [20], the time to peak (Tmax) is 5.55 h.
